According to the NIST ThermoML archive (doi:10.1021/je2003012):
± gives the expanded uncertainty stated by the source.

Experiment: relative permittivity at various frequencies (dimensionless); wn = mass fraction of the nth substance listed
Conditions: Liquid, direct capacitance:P =

SMILES: O=C=O [carbon dioxide] + CCO
- relative permittivity (303.4 K, 10000 kPa, w2 = 0.05): 1.83 ± 0.14
- relative permittivity (303.4 K, 11400 kPa, w2 = 0.05): 1.86 ± 0.14
- relative permittivity (303.4 K, 13200 kPa, w2 = 0.05): 1.89 ± 0.14
- relative permittivity (303.4 K, 13600 kPa, w2 = 0.05): 1.9 ± 0.14
- relative permittivity (303.4 K, 14800 kPa, w2 = 0.05): 1.91 ± 0.14
- relative permittivity (303.4 K, 15300 kPa, w2 = 0.05): 1.92 ± 0.14
- relative permittivity (303.4 K, 15800 kPa, w2 = 0.05): 1.92 ± 0.14
- relative permittivity (303.4 K, 16000 kPa, w2 = 0.05): 1.93 ± 0.14
- relative permittivity (303.4 K, 17500 kPa, w2 = 0.05): 1.94 ± 0.14
- relative permittivity (303.4 K, 19000 kPa, w2 = 0.05): 1.95 ± 0.14
- relative permittivity (303.4 K, 19200 kPa, w2 = 0.05): 1.95 ± 0.14
- relative permittivity (303.4 K, 21000 kPa, w2 = 0.05): 1.97 ± 0.14
- relative permittivity (303.4 K, 21300 kPa, w2 = 0.05): 1.97 ± 0.14
- relative permittivity (303.4 K, 23000 kPa, w2 = 0.05): 1.98 ± 0.14
- relative permittivity (303.4 K, 23300 kPa, w2 = 0.05): 1.99 ± 0.14
- relative permittivity (303.4 K, 25100 kPa, w2 = 0.05): 2 ± 0.14
- relative permittivity (303.4 K, 25400 kPa, w2 = 0.05): 2 ± 0.14
- relative permittivity (303.4 K, 26700 kPa, w2 = 0.05): 2.01 ± 0.14
- relative permittivity (303.4 K, 27200 kPa, w2 = 0.05): 2.01 ± 0.14
- relative permittivity (303.4 K, 28900 kPa, w2 = 0.05): 2.02 ± 0.14
- relative permittivity (303.4 K, 29600 kPa, w2 = 0.05): 2.03 ± 0.14
- relative permittivity (303.7 K, 7200 kPa, w2 = 0.212): 3.15 ± 0.15
- relative permittivity (303.7 K, 7900 kPa, w2 = 0.212): 3.18 ± 0.15
- relative permittivity (303.7 K, 8800 kPa, w2 = 0.212): 3.22 ± 0.15
- relative permittivity (303.7 K, 9800 kPa, w2 = 0.1): 2.24 ± 0.14
- relative permittivity (303.7 K, 9800 kPa, w2 = 0.212): 3.25 ± 0.15
- relative permittivity (303.7 K, 11000 kPa, w2 = 0.212): 3.29 ± 0.15
- relative permittivity (303.7 K, 11300 kPa, w2 = 0.1): 2.27 ± 0.14
- relative permittivity (303.7 K, 11400 kPa, w2 = 0.1): 2.28 ± 0.14
- relative permittivity (303.7 K, 13000 kPa, w2 = 0.212): 3.35 ± 0.15
- relative permittivity (303.7 K, 13100 kPa, w2 = 0.1): 2.3 ± 0.14
- relative permittivity (303.7 K, 14000 kPa, w2 = 0.1): 2.32 ± 0.14
- relative permittivity (303.7 K, 14900 kPa, w2 = 0.1): 2.34 ± 0.14
- relative permittivity (303.7 K, 14900 kPa, w2 = 0.212): 3.4 ± 0.15
- relative permittivity (303.7 K, 15000 kPa, w2 = 0.212): 3.4 ± 0.15
- relative permittivity (303.7 K, 16000 kPa, w2 = 0.1): 2.36 ± 0.14
- relative permittivity (303.7 K, 16500 kPa, w2 = 0.212): 3.44 ± 0.15
- relative permittivity (303.7 K, 16700 kPa, w2 = 0.212): 3.45 ± 0.15
- relative permittivity (303.7 K, 16900 kPa, w2 = 0.1): 2.37 ± 0.14
- relative permittivity (303.7 K, 17300 kPa, w2 = 0.212): 3.46 ± 0.15
- relative permittivity (303.7 K, 17800 kPa, w2 = 0.1): 2.38 ± 0.14
- relative permittivity (303.7 K, 18000 kPa, w2 = 0.212): 3.47 ± 0.15
- relative permittivity (303.7 K, 18800 kPa, w2 = 0.212): 3.49 ± 0.15
- relative permittivity (303.7 K, 19100 kPa, w2 = 0.1): 2.4 ± 0.14
- relative permittivity (303.7 K, 19900 kPa, w2 = 0.1): 2.41 ± 0.14
- relative permittivity (303.7 K, 20200 kPa, w2 = 0.212): 3.52 ± 0.15
- relative permittivity (303.7 K, 20400 kPa, w2 = 0.1): 2.42 ± 0.14
- relative permittivity (303.7 K, 21400 kPa, w2 = 0.1): 2.43 ± 0.14
- relative permittivity (303.7 K, 21600 kPa, w2 = 0.212): 3.54 ± 0.14
- relative permittivity (303.7 K, 21800 kPa, w2 = 0.212): 3.55 ± 0.14
- relative permittivity (303.7 K, 21900 kPa, w2 = 0.1): 2.43 ± 0.14
- relative permittivity (303.7 K, 23100 kPa, w2 = 0.1): 2.45 ± 0.14
- relative permittivity (303.7 K, 23300 kPa, w2 = 0.212): 3.57 ± 0.14
- relative permittivity (303.7 K, 23900 kPa, w2 = 0.212): 3.58 ± 0.14
- relative permittivity (303.7 K, 24100 kPa, w2 = 0.1): 2.46 ± 0.14
- relative permittivity (303.7 K, 24200 kPa, w2 = 0.1): 2.46 ± 0.14
- relative permittivity (303.7 K, 25300 kPa, w2 = 0.1): 2.47 ± 0.14
- relative permittivity (303.7 K, 25400 kPa, w2 = 0.212): 3.61 ± 0.14
- relative permittivity (303.7 K, 25500 kPa, w2 = 0.1): 2.48 ± 0.14
- relative permittivity (303.7 K, 26200 kPa, w2 = 0.212): 3.62 ± 0.14
- relative permittivity (303.7 K, 26500 kPa, w2 = 0.1): 2.48 ± 0.14
- relative permittivity (303.7 K, 27200 kPa, w2 = 0.212): 3.64 ± 0.14
- relative permittivity (303.7 K, 27400 kPa, w2 = 0.1): 2.49 ± 0.14
- relative permittivity (303.7 K, 28000 kPa, w2 = 0.1): 2.5 ± 0.14
- relative permittivity (303.7 K, 28400 kPa, w2 = 0.1): 2.5 ± 0.14
- relative permittivity (303.7 K, 28400 kPa, w2 = 0.212): 3.66 ± 0.14
- relative permittivity (303.7 K, 29400 kPa, w2 = 0.1): 2.51 ± 0.14
- relative permittivity (303.7 K, 30200 kPa, w2 = 0.212): 3.68 ± 0.14
- relative permittivity (304.9 K, 16100 kPa, w2 = 0.152): 2.67 ± 0.15
- relative permittivity (304.9 K, 16800 kPa, w2 = 0.152): 2.68 ± 0.14
- relative permittivity (304.9 K, 17300 kPa, w2 = 0.152): 2.68 ± 0.15
- relative permittivity (304.9 K, 17800 kPa, w2 = 0.152): 2.69 ± 0.14
- relative permittivity (304.9 K, 18800 kPa, w2 = 0.152): 2.7 ± 0.14
- relative permittivity (304.9 K, 19400 kPa, w2 = 0.152): 2.72 ± 0.14
- relative permittivity (304.9 K, 20100 kPa, w2 = 0.152): 2.73 ± 0.14
- relative permittivity (304.9 K, 20800 kPa, w2 = 0.152): 2.74 ± 0.14
- relative permittivity (304.9 K, 21900 kPa, w2 = 0.152): 2.75 ± 0.14
- relative permittivity (304.9 K, 22800 kPa, w2 = 0.152): 2.76 ± 0.14
- relative permittivity (304.9 K, 23700 kPa, w2 = 0.152): 2.77 ± 0.15
- relative permittivity (304.9 K, 24300 kPa, w2 = 0.152): 2.79 ± 0.14
- relative permittivity (304.9 K, 24700 kPa, w2 = 0.152): 2.78 ± 0.14
- relative permittivity (304.9 K, 25500 kPa, w2 = 0.152): 2.79 ± 0.14
- relative permittivity (304.9 K, 26400 kPa, w2 = 0.152): 2.81 ± 0.14
- relative permittivity (304.9 K, 26500 kPa, w2 = 0.152): 2.81 ± 0.14
- relative permittivity (304.9 K, 27200 kPa, w2 = 0.152): 2.82 ± 0.14
- relative permittivity (304.9 K, 28200 kPa, w2 = 0.152): 2.83 ± 0.14
- relative permittivity (304.9 K, 29100 kPa, w2 = 0.152): 2.84 ± 0.14
